Source: ChEMBL document CHEMBL3885881, “DrugMatrix”

Experiments:
Rattus norvegicus [1] = organism: Rattus norvegicus; type: toxicity, organism-based, Sprague-Dawley; details: in vivo, po, 200 mg/kg, 24 h, route oral GAVAGE, dose level High, time 1 day, vehicle .5 % CMC
Description: DrugMatrix - Regimen: Single

Rattus norvegicus [2] = organism: Rattus norvegicus; experiment: DrugMatrix - Regimen: Daily Repeat; type: toxicity, organism-based, Sprague-Dawley; set-up: regimen Daily Repeat, gender Male, age 6-8 weeks; details: in vivo, po, 200 mg/kg, […], route oral GAVAGE, dose level High, time 14 day, vehicle .5 % CMC

CC(C)=C1CC[C@@H](C)CC1=O [PULEGONE]
ABSOLUTE EOSINOPHIL (Rattus norvegicus [1]; tissue Blood): 46 CELLS/uL
ABSOLUTE LYMPHOCYTE (Rattus norvegicus [1]; tissue Blood): 13023.67 CELLS/uL
ABSOLUTE MONOCYTE (Rattus norvegicus [1]; tissue Blood): 245.33 CELLS/uL
ABSOLUTE SEGMENTED NEUTROPHIL (Rattus norvegicus [1]; tissue Blood): 1251.67 CELLS/uL
BASOPHIL (Rattus norvegicus [1]; tissue Blood): 0%
EOSINOPHIL (Rattus norvegicus [1]; tissue Blood): 0.33%
ERYTHROCYTE COUNT (Rattus norvegicus [1]; tissue Blood): 5.98 x10E6/uL
HEMATOCRIT (Rattus norvegicus [1]; tissue Blood): 37.73%
HEMOGLOBIN (Rattus norvegicus [1]; tissue Blood): 13.9 G/DL
LEUKOCYTE COUNT (Rattus norvegicus [1]; tissue Blood): 14.57 x10E3/uL
LYMPHOCYTE (Rattus norvegicus [1]; tissue Blood): 90%
MEAN CORPUSCULAR HEMOGLOBIN (Rattus norvegicus [1]; tissue Blood): 23.43 pg
MEAN CORPUSCULAR HEMOGLOBIN CONCENTRATION (Rattus norvegicus [1]; tissue Blood): 37 G/DL
MEAN CORPUSCULAR VOLUME (Rattus norvegicus [1]; tissue Blood): 63.4 fL
MONOCYTE (Rattus norvegicus [1]; tissue Blood): 1.67%
NEUTROPHIL (Rattus norvegicus [1]; tissue Blood): 8%
NUCLEATED RED BLOOD CELLS (Rattus norvegicus [1]; tissue Blood): 0 /100WBC
PLATELET COUNT (Rattus norvegicus [1]; tissue Blood): 961.67 x10E3/uL
ALANINE AMINOTRANSFERASE (Rattus norvegicus [1]; tissue Plasma): 52.67 u/L
ALBUMIN (Rattus norvegicus [1]; tissue Plasma): 4.3 G/DL
ALKALINE PHOSPHATASE (Rattus norvegicus [1]; tissue Plasma): 476.33 u/L
ASPARTATE AMINOTRANSFERASE (Rattus norvegicus [1]; tissue Plasma): 110 u/L
BLOOD UREA NITROGEN (Rattus norvegicus [1]; tissue Plasma): 12.33 mg/dL
CARBON DIOXIDE (Rattus norvegicus [1]; tissue Plasma): 23.67 mmol/L
CHLORIDE (Rattus norvegicus [1]; tissue Plasma): 103.5 MEQ/L
CHOLESTEROL (Rattus norvegicus [1]; tissue Plasma): 77.67 mg/dL
CREATININE (Rattus norvegicus [1]; tissue Plasma): 0.14 mg/dL
GLUCOSE (Rattus norvegicus [1]; tissue Plasma): 133.33 mg/dL
LACTATE DEHYDROGENASE (Rattus norvegicus [1]; tissue Plasma): 244 u/L
LIPASE (Rattus norvegicus [1]; tissue Plasma): 10 u/L
PHOSPHORUS (Rattus norvegicus [1]; tissue Plasma): 12.8 mg/dL
POTASSIUM (Rattus norvegicus [1]; tissue Plasma): 6.49 MEQ/L
SODIUM (Rattus norvegicus [1]; tissue Plasma): 142.65 MEQ/L
TOTAL BILIRUBIN (Rattus norvegicus [1]; tissue Plasma): 0.23 mg/dL
TOTAL PROTEIN (Rattus norvegicus [1]; tissue Plasma): 6 G/DL
URIC ACID (Rattus norvegicus [1]; tissue Plasma): 1.8 mg/dL
ABSOLUTE BASOPHIL (Rattus norvegicus [2]; tissue Blood): 0 CELLS/uL
ABSOLUTE EOSINOPHIL (Rattus norvegicus [2]; tissue Blood): 211.4 CELLS/uL
ABSOLUTE LYMPHOCYTE (Rattus norvegicus [2]; tissue Blood): 21257.2 CELLS/uL
ABSOLUTE MONOCYTE (Rattus norvegicus [2]; tissue Blood): 665.8 CELLS/uL
ABSOLUTE SEGMENTED NEUTROPHIL (Rattus norvegicus [2]; tissue Blood): 3705.6 CELLS/uL
BASOPHIL (Rattus norvegicus [2]; tissue Blood): 0%
EOSINOPHIL (Rattus norvegicus [2]; tissue Blood): 0.8%
ERYTHROCYTE COUNT (Rattus norvegicus [2]; tissue Blood): 6.34 x10E6/uL
HEMATOCRIT (Rattus norvegicus [2]; tissue Blood): 37.3%
HEMOGLOBIN (Rattus norvegicus [2]; tissue Blood): 13.88 G/DL
LEUKOCYTE COUNT (Rattus norvegicus [2]; tissue Blood): 25.84 x10E3/uL
LYMPHOCYTE (Rattus norvegicus [2]; tissue Blood): 82.2%
MEAN CORPUSCULAR HEMOGLOBIN (Rattus norvegicus [2]; tissue Blood): 21.94 pg
MEAN CORPUSCULAR HEMOGLOBIN CONCENTRATION (Rattus norvegicus [2]; tissue Blood): 37.2 G/DL
MEAN CORPUSCULAR VOLUME (Rattus norvegicus [2]; tissue Blood): 58.94 fL
MONOCYTE (Rattus norvegicus [2]; tissue Blood): 2.6%
NEUTROPHIL (Rattus norvegicus [2]; tissue Blood): 14.4%
NUCLEATED RED BLOOD CELLS (Rattus norvegicus [2]; tissue Blood): 0 /100WBC
PLATELET COUNT (Rattus norvegicus [2]; tissue Blood): 1150.2 x10E3/uL
ALANINE AMINOTRANSFERASE (Rattus norvegicus [2]; tissue Plasma): 78.8 u/L
ALBUMIN (Rattus norvegicus [2]; tissue Plasma): 4.54 G/DL
ALKALINE PHOSPHATASE (Rattus norvegicus [2]; tissue Plasma): 518 u/L
ASPARTATE AMINOTRANSFERASE (Rattus norvegicus [2]; tissue Plasma): 93.8 u/L
BLOOD UREA NITROGEN (Rattus norvegicus [2]; tissue Plasma): 14.2 mg/dL
CARBON DIOXIDE (Rattus norvegicus [2]; tissue Plasma): 27.4 mmol/L
CHLORIDE (Rattus norvegicus [2]; tissue Plasma): 102.2 MEQ/L
CHOLESTEROL (Rattus norvegicus [2]; tissue Plasma): 65 mg/dL
CREATININE (Rattus norvegicus [2]; tissue Plasma): 0.18 mg/dL
GLUCOSE (Rattus norvegicus [2]; tissue Plasma): 128.2 mg/dL
LACTATE DEHYDROGENASE (Rattus norvegicus [2]; tissue Plasma): 147 u/L
LIPASE (Rattus norvegicus [2]; tissue Plasma): 11 u/L
PHOSPHORUS (Rattus norvegicus [2]; tissue Plasma): 12.52 mg/dL
POTASSIUM (Rattus norvegicus [2]; tissue Plasma): 7 MEQ/L
SODIUM (Rattus norvegicus [2]; tissue Plasma): 148.6 MEQ/L
TOTAL BILIRUBIN (Rattus norvegicus [2]; tissue Plasma): 0.32 mg/dL
TOTAL PROTEIN (Rattus norvegicus [2]; tissue Plasma): 6.52 G/DL
URIC ACID (Rattus norvegicus [2]; tissue Plasma): 2.08 mg/dL
